Data reported in patent publication EP0019764A1, “Trans-3-(4'-tert.-butyl-cyclohexyl-1')-2-methyl-1-(3'-methylpiperidino, 3',5'-dimethylpiperidino and 2', 6'-dimethylmorpholino) propane, process for their pure preparation, antimycotic agents containing them and their utilisation” (BASF Aktiengesellschaft, priority 1979, dated 1980).
≈ marks a conversion by molar mass, not a printed value. Where two headings read alike, the source gives them in different places.

Columns and labels:
Epidermophyton floccosum = assay: agar dilution test, minimal inhibitory concentration; assay type: cell-based; conditions: Stamm No 157/M, Agardilutionstest, read-out: MHK-Werte
Source text: (§1) Die Wirkung gegenüber Mikroorganismen kann nach Methoden, wie sie beispielsweise in P. Klein, Bakteriologische Grundlagen der chemotherapeutischen Laboratoriumspraxis, Springer-Verlag Berlin, 1957, beschrieben sind, aufgezeigt werden.
(§2) Beispielsweise wurde geprüft, welche minimalen Hemmkonzentrationen (MHK-Werte) im Agardilutionstest gegen pathogene Pilze erreicht werden können.
(§3) In der folgenden Tabelle 1 sind die Ergebnisse zusammengefaßt: […]

Microsporum canis = assay: as above; assay type: cell-based; conditions: Agardilutionstest, read-out: MHK-Werte
Source text: as §1, §2, §3

Microsporum ferrugineum = assay: as above; assay type: cell-based; conditions: Stamm No 5/M, Agardilutionstest, read-out: MHK-Werte
Source text: as §1, §2, §3

Microsporum gypseum = assay: as above; assay type: cell-based; conditions: Nannizzia gypsea; Stamm No 156/M; Agardilutionstest; read-out: MHK-Werte
Source text: as §1, §2, §3

[1] = test system: Trichophyton mentagrophytes; assay: as above; assay type: cell-based; conditions: Agardilutionstest, read-out: MHK-Werte
Source text: as §1, §2, §3

Trichophyton rubrum = assay: as above; assay type: cell-based; conditions: Stamm No 158/M, Agardilutionstest, read-out: MHK-Werte
Source text: as §1, §2, §3

Trichophyton violaceum = assay: as above; assay type: cell-based; conditions: Stamm No 10/M, Agardilutionstest, read-out: MHK-Werte
Source text: as §1, §2, §3

[2] = test system: Trichophyton schoenleinii; assay: as above; assay type: cell-based; conditions: Stamm No 9/M, Agardilutionstest, read-out: MHK-Werte
Source text: as §1, §2, §3

[3] = acute oral toxicity (LD50) in the mouse; conditions: in vivo, Maus per os
Source text: Aus diesen LD50-Werten ergibt sich für die topische und systemische Anwendung nach oraler Gabe eine genügend therapeutische Breite.

[4] = test system: humanpathogenen Pilzen und Hefen aus dem Verwandtschaftskreis der Dermatophyten; assay: inhibitory effect on microorganisms, trans compound compared with cis compound; assay type: cell-based; conditions: compared with the respective cis compound; Hemmeffekte gegenüber Mikroorganismen
Source text: Aufgrund der überraschenden Feststellung, daß die reinen trans-Verbindungen gegenüber humanpathogenen Pilzen und Hefen aus dem Verwandtschaftskreis der Dermatophyten um das 10-fache und noch darüber hinaus stärker wirksam sind als die cis-Verbindungen, ist es eine Aufgabe der Erfindung, Verfahren zur Herstellung der reinen trans-Verbindungen (1) bis (3) zu entwickeln.
überraschenderweise sind die reinen trans-Verbindungen fast ausschließlich Träger der guten antimykotischen Wirkung. Verglichen mit der jeweiligen cis-Verbindung und bezogen auf die Hemmeffekte gegenüber Mikroorganismen, sind die trans-Verbindungen (1), (2) und (3) 10-fach und noch darüber hinaus stärker wirksam. Das bedeutet beispielsweise bei etwa gleichen Toxizitätswerten eine wesentliche Verbesserung der therapeutischen Breite.

SMILES	MIC (Epidermophyton floccosum) [µg/mL]	MIC (Microsporum canis; Stamm No 167/M) [µg/mL]	MIC (Microsporum canis; Stamm No 168/M) [µg/mL]	MIC (Microsporum canis; Stamm No 169/M) [µg/mL]	MIC (Microsporum ferrugineum) [µg/mL]	MIC (Microsporum gypseum) [µg/mL]	MIC ([1]; Stamm No 19/M) [µg/mL]	MIC ([1]; Stamm No 21/M) [µg/mL]	MIC ([1]; Stamm No 159/M) [µg/mL]	MIC ([1]; Stamm No 160/M) [µg/mL]	MIC ([1]; Stamm No 172/M) [µg/mL]	MIC ([1]; Stamm No 173/M) [µg/mL]	MIC (Trichophyton rubrum) [µg/mL]	MIC (Trichophyton violaceum) [µg/mL]	MIC (Microsporum canis; Stamm No 155/M) [µg/mL]	MIC ([1]; Stamm No 170/M) [µg/mL]	MIC ([1]; Stamm No 171/M) [µg/mL]	MIC ([1]; Stamm No 174/M) [µg/mL]	MIC [2] [µg/mL]	LD50 [3] [mg/kg]	also measured
CC1CCCN(CC(C)C[C@H]2CC[C@@H](C(C)(C)C)CC2)C1 (relative stereo) [(1) cis, cis- und trans-3-(4-tert.-Butyl-cyclohexyl-1)-2-methyl-1-(3'-methyl-1-piperidino)-propan]	0.25 (≈ 0.852 µM)	0.25 (≈ 0.852 µM)	0.0625 (≈ 0.213 µM)	0.5 (≈ 1.7 µM)	0.0312 (≈ 0.106 µM)	0.25 (≈ 0.852 µM)	0.5 (≈ 1.7 µM)	0.25 (≈ 0.852 µM)	0.0312 (≈ 0.106 µM)	0.25 (≈ 0.852 µM)	0.5 (≈ 1.7 µM)	0.25 (≈ 0.852 µM)	0.25 (≈ 0.852 µM)	0.0625 (≈ 0.213 µM)							
CC1CCCN(CC(C)C[C@H]2CC[C@H](C(C)(C)C)CC2)C1 (relative stereo) [(1) trans, trans-3-(4'-tert.-Butyl-cyclohexyl-1')-2-methyl-1-(3'--methyl-1'-piperidino)-propan]	0.0312 (≈ 0.106 µM)	0.0312 (≈ 0.106 µM)	0.0156 (≈ 0.0531 µM)	0.0625 (≈ 0.213 µM)	0.0078 (≈ 0.0266 µM)	0.0156 (≈ 0.0531 µM)	0.0312 (≈ 0.106 µM)	0.0312 (≈ 0.106 µM)	0.0078 (≈ 0.0266 µM)	0.0312 (≈ 0.106 µM)	0.0625 (≈ 0.213 µM)	0.0312 (≈ 0.106 µM)	0.0312 (≈ 0.106 µM)	0.0156 (≈ 0.0531 µM)	0.0156 (≈ 0.0531 µM)	0.0156 (≈ 0.0531 µM)	0.0156 (≈ 0.0531 µM)	0.0312 (≈ 0.106 µM)	0.0625 (≈ 0.213 µM)	305	stärker wirksam als die cis-Verbindung [4]: ≥ 10 fach
CC1CC(C)CN(CC(C)C[C@H]2CC[C@@H](C(C)(C)C)CC2)C1 (relative stereo) [(2) cis, cis- und trans-3-(4'-tert.-Butyl-cyclohexyl-1')-2--methyl-1-(3',5'-dimethyl-1'-piperidino)-propan]			0.0312 (≈ 0.101 µM)		0.0625 (≈ 0.203 µM)		0.25 (≈ 0.813 µM)		0.0156 (≈ 0.0507 µM)			0.25 (≈ 0.813 µM)		0.0625 (≈ 0.203 µM)		0.0625 (≈ 0.203 µM)	0.0625 (≈ 0.203 µM)		0.0625 (≈ 0.203 µM)		
CC1CC(C)CN(CC(C)C[C@H]2CC[C@H](C(C)(C)C)CC2)C1 (relative stereo) [(2) trans, trans-3-(4'-tert.-Butyl-cyclohexyl-1')-2-methyl-1-(3',5'--dimethyl-l'-piperidino)-propan]	0.0156 (≈ 0.0507 µM)	0.0156 (≈ 0.0507 µM)	< 0.0078	0.0312 (≈ 0.101 µM)	< 0.0078	0.0312 (≈ 0.101 µM)	0.0625 (≈ 0.203 µM)	0.0312 (≈ 0.101 µM)	< 0.0078	0.0312 (≈ 0.101 µM)	0.0312 (≈ 0.101 µM)	0.0312 (≈ 0.101 µM)	0.0312 (≈ 0.101 µM)	< 0.0078	0.0312 (≈ 0.101 µM)	< 0.0078	< 0.0078	0.0156 (≈ 0.0507 µM)	0.0156 (≈ 0.0507 µM)	335	stärker wirksam als die cis-Verbindung [4]: ≥ 10 fach
CC(CN1C[C@@H](C)O[C@@H](C)C1)C[C@H]1CC[C@@H](C(C)(C)C)CC1 (relative stereo) [(3) cis, cis- und trans-3-(4'-tert.-Butyl-cyclohexyl-l')-2--methyl-l-(2',6'-cis-dimethyl-morpholyl)-propan]	0.25 (≈ 0.808 µM)	0.0625 (≈ 0.202 µM)	0.0625 (≈ 0.202 µM)		0.0312 (≈ 0.101 µM)		1 (≈ 3.23 µM)	1 (≈ 3.23 µM)	0.0625 (≈ 0.202 µM)		0.25 (≈ 0.808 µM)	0.25 (≈ 0.808 µM)	> 1		0.5 (≈ 1.62 µM)	0.0625 (≈ 0.202 µM)	0.0625 (≈ 0.202 µM)				
CC(CN1C[C@@H](C)O[C@@H](C)C1)C[C@H]1CC[C@H](C(C)(C)C)CC1 (relative stereo) [(3) trans, trans-3-(4'-tert.-Butyl-cyclohexyl-1')-2-methyl-1--(2',6'-cis-dimethylmorpholino)-propan]	0.0312 (≈ 0.101 µM)	0.0312 (≈ 0.101 µM)	0.0156 (≈ 0.0504 µM)	0.0312 (≈ 0.101 µM)	< 0.0078	0.0156 (≈ 0.0504 µM)	0.0312 (≈ 0.101 µM)	0.0625 (≈ 0.202 µM)	< 0.0078	0.0625 (≈ 0.202 µM)	0.0625 (≈ 0.202 µM)	0.0625 (≈ 0.202 µM)	0.0625 (≈ 0.202 µM)	0.0156 (≈ 0.0504 µM)	0.0312 (≈ 0.101 µM)	0.0156 (≈ 0.0504 µM)	0.0156 (≈ 0.0504 µM)	0.0156 (≈ 0.0504 µM)	0.0156 (≈ 0.0504 µM)	2250	stärker wirksam als die cis-Verbindung [4]: ≥ 10 fach
Clc1ccccc1C(c1ccccc1)(c1ccccc1)n1ccnc1 [Clotrimazol, reference compound]	0.32 (≈ 0.928 µM)	0.64 (≈ 1.86 µM)	0.16 (≈ 0.464 µM)	0.64 (≈ 1.86 µM)	0.16 (≈ 0.464 µM)	0.64 (≈ 1.86 µM)	1.28 (≈ 3.71 µM)	1.28 (≈ 3.71 µM)	0.32 (≈ 0.928 µM)	0.64 (≈ 1.86 µM)	0.64 (≈ 1.86 µM)	0.64 (≈ 1.86 µM)	1.28 (≈ 3.71 µM)	0.16 (≈ 0.464 µM)	0.32 (≈ 0.928 µM)	0.32 (≈ 0.928 µM)	0.32 (≈ 0.928 µM)	1.28 (≈ 3.71 µM)	0.64 (≈ 1.86 µM)		
Clc1ccc(COC(Cn2ccnc2)c2ccc(Cl)cc2Cl)c(Cl)c1 (stereo not drawn) [Miconazol, reference compound]	> 1.28	> 1.28	> 1.28	> 1.28	> 1.28	> 1.28	> 1.28	> 1.28	0.32 (≈ 0.769 µM)	> 1.28	0.32 (≈ 0.769 µM)	0.32 (≈ 0.769 µM)	> 1.28	0.64 (≈ 1.54 µM)	> 1.28	1.28 (≈ 3.08 µM)	0.64 (≈ 1.54 µM)	> 1.28	> 1.28		
Cc1cccc(N(C)C(=S)Oc2ccc3ccccc3c2)c1 [Tolnaftat, reference compound]	0.32 (≈ 1.04 µM)	0.16 (≈ 0.52 µM)	0.04 (≈ 0.13 µM)	0.32 (≈ 1.04 µM)	0.16 (≈ 0.52 µM)	0.16 (≈ 0.52 µM)	0.04 (≈ 0.13 µM)	0.32 (≈ 1.04 µM)	0.08 (≈ 0.26 µM)	0.32 (≈ 1.04 µM)	0.64 (≈ 2.08 µM)	0.32 (≈ 1.04 µM)	0.08 (≈ 0.26 µM)	< 0.01	0.32 (≈ 1.04 µM)	0.08 (≈ 0.26 µM)	0.16 (≈ 0.52 µM)	0.08 (≈ 0.26 µM)	0.04 (≈ 0.13 µM)		
